The source made the active and inactive calls. The rule behind the calls is not given here.
Test system: CCRIS mutagenicity, Ames/micronucleus/aberration tests
Experiment: CCRIS mutagenicity studies
[1] = Test System: AMES SALMONELLA TYPHIMURIUM, Strain/Indicator: TA98, Metabolic Activation: NONE, Method: STANDARD PLATE
[2] = Test System: AMES SALMONELLA TYPHIMURIUM, Strain/Indicator: TA98, Metabolic Activation: RAT, LIVER, S-9, AROCLOR 1254, Method: STANDARD PLATE
[3] = Test System: AMES SALMONELLA TYPHIMURIUM, Strain/Indicator: TA100, Metabolic Activation: NONE, Method: STANDARD PLATE
[4] = Test System: AMES SALMONELLA TYPHIMURIUM, Strain/Indicator: TA100, Metabolic Activation: RAT, LIVER, S-9, AROCLOR 1254, Method: STANDARD PLATE
[5] = Test System: AMES SALMONELLA TYPHIMURIUM, Strain/Indicator: TA1535, Metabolic Activation: NONE, Method: STANDARD PLATE
[6] = Test System: AMES SALMONELLA TYPHIMURIUM, Strain/Indicator: TA1535, Metabolic Activation: RAT, LIVER, S-9, AROCLOR 1254, Method: STANDARD PLATE
[7] = Test System: AMES SALMONELLA TYPHIMURIUM, Strain/Indicator: TA1537, Metabolic Activation: NONE, Method: STANDARD PLATE
[8] = Test System: AMES SALMONELLA TYPHIMURIUM, Strain/Indicator: TA1537, Metabolic Activation: RAT, LIVER, S-9, AROCLOR 1254, Method: STANDARD PLATE
[9] = Test System: AMES SALMONELLA TYPHIMURIUM, Strain/Indicator: TA1538, Metabolic Activation: NONE, Method: STANDARD PLATE
[10] = Test System: AMES SALMONELLA TYPHIMURIUM, Strain/Indicator: TA1538, Metabolic Activation: RAT, LIVER, S-9, AROCLOR 1254, Method: STANDARD PLATE
[11] = Test System: AMES SALMONELLA TYPHIMURIUM, Strain/Indicator: TA100, Metabolic Activation: NONE, Method: PREINCUBATION
[12] = Test System: AMES SALMONELLA TYPHIMURIUM, Strain/Indicator: TA102, Metabolic Activation: NONE, Method: PREINCUBATION

With `C=CC(=O)OCCCCOC(=O)C=C` as the compound, how does the mutagenic call [1] read?
Its mutagenic call is “inactive; negative”.

What about the mutagenic call [2] of the same compound?
The mutagenic call was “inactive; negative”.

What about the mutagenic call (Test System: AMES SALMONELLA TYPHIMURIUM, Strain/Indicator: TA98, Metabolic Activation: RAT, LIVER, S-9, SODIUM PHENOBARBITAL, Method: STANDARD PLATE) of the same compound?
Its mutagenic call is “inactive; negative”.

And the mutagenic call [3]?
Its mutagenic call is “inactive; negative”.

And the mutagenic call [4]?
Its mutagenic call is “inactive; negative”.

What about the mutagenic call (Test System: AMES SALMONELLA TYPHIMURIUM, Strain/Indicator: TA100, Metabolic Activation: RAT, LIVER, S-9, SODIUM PHENOBARBITAL, Method: STANDARD PLATE) of the same compound?
The mutagenic call was “inactive; negative”.

And the mutagenic call [5]?
The mutagenic call was “inactive; negative”.

What about the mutagenic call [6] of the same compound?
Its mutagenic call is “inactive; negative”.

What about the mutagenic call (Test System: AMES SALMONELLA TYPHIMURIUM, Strain/Indicator: TA1535, Metabolic Activation: RAT, LIVER, S-9, SODIUM PHENOBARBITAL, Method: STANDARD PLATE) of the same compound?
The mutagenic call was “inactive; negative”.

What about the mutagenic call [7] of the same compound?
The mutagenic call was “inactive; negative”.

What about the mutagenic call [8] of the same compound?
Its mutagenic call is “inactive; negative”.

What about the mutagenic call (Test System: AMES SALMONELLA TYPHIMURIUM, Strain/Indicator: TA1537, Metabolic Activation: RAT, LIVER, S-9, SODIUM PHENOBARBITAL, Method: STANDARD PLATE) of the same compound?
Its mutagenic call is “inactive; negative”.

And the mutagenic call [9]?
Its mutagenic call is “inactive; negative”.

What about the mutagenic call [10] of the same compound?
Its mutagenic call is “inactive; negative”.

And the mutagenic call (Test System: AMES SALMONELLA TYPHIMURIUM, Strain/Indicator: TA1538, Metabolic Activation: RAT, LIVER, S-9, SODIUM PHENOBARBITAL, Method: STANDARD PLATE)?
The mutagenic call was “inactive; negative”.

For `O=C(O)/C=C/c1ccccc1`, which mutagenic call (Test System: AMES SALMONELLA TYPHIMURIUM, Strain/Indicator: TA98, Metabolic Activation: HAMSTER, LIVER, S-9, AROCLOR 1254 (2.5-20%), Method: PREINCUBATION) is on record?
The mutagenic call was “inactive; negative”.

And the mutagenic call (Test System: AMES SALMONELLA TYPHIMURIUM, Strain/Indicator: TA98, Metabolic Activation: HAMSTER, LIVER, S-9, AROCLOR 1254, Method: STANDARD PLATE)?
Its mutagenic call is “inactive; negative”.

What about the mutagenic call [1] of the same compound?
The mutagenic call was “inactive; negative”.

And the mutagenic call [2]?
The mutagenic call was “inactive; negative”.

And the mutagenic call (Test System: AMES SALMONELLA TYPHIMURIUM, Strain/Indicator: TA100, Metabolic Activation: HAMSTER, LIVER, S-9, AROCLOR 1254 (2.5-20%), Method: PREINCUBATION)?
The mutagenic call was “inactive; negative”.

What about the mutagenic call (Test System: AMES SALMONELLA TYPHIMURIUM, Strain/Indicator: TA100, Metabolic Activation: HAMSTER, LIVER, S-9, AROCLOR 1254, Method: STANDARD PLATE) of the same compound?
The mutagenic call was “inactive; negative”.

And the mutagenic call [11]?
The mutagenic call was “inactive; negative”.

And the mutagenic call [3]?
Its mutagenic call is “inactive; negative”.

What about the mutagenic call (Test System: AMES SALMONELLA TYPHIMURIUM, Strain/Indicator: TA100, Metabolic Activation: RAT, LIVER, S-9, AROCLOR 1254, Method: PREINCUBATION) of the same compound?
Its mutagenic call is “inactive; negative”.

And the mutagenic call [4]?
Its mutagenic call is “inactive; negative”.

And the mutagenic call (Test System: AMES SALMONELLA TYPHIMURIUM, Strain/Indicator: TA102, Metabolic Activation: HAMSTER, LIVER, S-9, AROCLOR 1254, Method: PREINCUBATION)?
Its mutagenic call is “inactive; negative”.

And the mutagenic call [12]?
The mutagenic call was “inactive; negative”.

What about the mutagenic call (Test System: AMES SALMONELLA TYPHIMURIUM, Strain/Indicator: TA102, Metabolic Activation: RAT, LIVER, S-9, AROCLOR 1254, Method: PREINCUBATION) of the same compound?
Its mutagenic call is “inactive; negative”.

What about the mutagenic call (Test System: AMES SALMONELLA TYPHIMURIUM, Strain/Indicator: TA1535, Metabolic Activation: HAMSTER, LIVER, S-9, AROCLOR 1254, Method: STANDARD PLATE) of the same compound?
The mutagenic call was “inactive; negative”.

And the mutagenic call [5]?
Its mutagenic call is “inactive; negative”.

What about the mutagenic call [6] of the same compound?
The mutagenic call was “inactive; negative”.

And the mutagenic call (Test System: AMES SALMONELLA TYPHIMURIUM, Strain/Indicator: TA1537, Metabolic Activation: HAMSTER, LIVER, S-9, AROCLOR 1254, Method: STANDARD PLATE)?
The mutagenic call was “inactive; negative”.

What about the mutagenic call [7] of the same compound?
Its mutagenic call is “inactive; negative”.

What about the mutagenic call [8] of the same compound?
Its mutagenic call is “inactive; negative”.

And the mutagenic call (Test System: AMES SALMONELLA TYPHIMURIUM, Strain/Indicator: TA1538, Metabolic Activation: HAMSTER, LIVER, S-9, AROCLOR 1254, Method: STANDARD PLATE)?
Its mutagenic call is “inactive; negative”.

And the mutagenic call [9]?
The mutagenic call was “inactive; negative”.

And the mutagenic call [10]?
The mutagenic call was “inactive; negative”.

And the mutagenic call (Test System: MOUSE LYMPHOMA, Strain/Indicator: L5178Y (TK+/TK-), Metabolic Activation: NONE, Method: SUSPENSION/PLATE)?
The mutagenic call was “active; positive. reevaluation of results: equivocal”.

And the mutagenic call (Test System: Mouse lymphoma, Strain/Indicator: L5178Y (tk+/tk-), Metabolic Activation: Rat, Liver, S-9, Aroclor 1254, Method: Suspension/plate)?
The mutagenic call was “inactive; negative”.

Which mutagenic call [3] does the source give for `O=C(/C=C/c1ccccc1)c1ccc([N+](=O)[O-])cc1` here?
The mutagenic call was “inactive; negative”.

What about the mutagenic call [4] of the same compound?
The mutagenic call was “inactive; negative”.

Which mutagenic call [3] does the source give for `O=C1OCC(C(Br)Br)=C1Cl` here?
The mutagenic call was “active; positive”.

`c1ccc2c(c1)-c1c(c3ccccc3c3ccccc13)C1NC21` (stereo unspecified) was tested. Which mutagenic call (Test System: AMES SALMONELLA TYPHIMURIUM, Strain/Indicator: TA98, Metabolic Activation: NONE, Method: PREINCUBATION (KCL-CONTAINING MEDIUM)) did it give?
Its mutagenic call is “active; positive”.

What about the mutagenic call (Test System: AMES SALMONELLA TYPHIMURIUM, Strain/Indicator: TA98, Metabolic Activation: NONE, Method: PREINCUBATION (KCL-FREE MEDIUM)) of the same compound?
Its mutagenic call is “active; positive”.

What about the mutagenic call (Test System: AMES SALMONELLA TYPHIMURIUM, Strain/Indicator: TA100, Metabolic Activation: NONE, Method: PREINCUBATION (KCL-CONTAINING OR KCL-FREE MEDIA)) of the same compound?
Its mutagenic call is “active; positive”.

Which results are given for `NC(=O)CCC(=O)Nc1cc(Cl)c(Cl)c(Cl)c1`?
mutagenic call [1]: inactive; negative; mutagenic call [2]: inactive; negative; mutagenic call [3]: inactive; negative; mutagenic call [4]: inactive; negative

Which mutagenic call (Test System: AMES SALMONELLA TYPHIMURIUM, Strain/Indicator: TA100, Metabolic Activation: RAT LIVER S-9, PHENOBARBITAL AND 5,6-BENZOFLAVONE, Method: PREINCUBATION) does the source give for `Fc1cc(F)c2cccnc2c1` here?
The mutagenic call was “active; positive”.

`[O]=[Mg]` was tested. Which mutagenic call (Test System: AMES SALMONELLA TYPHIMURIUM, Strain/Indicator: TA97, Metabolic Activation: NONE, Method: PREINCUBATION) did it give?
The mutagenic call was “inactive; negative”.

And the mutagenic call (Test System: AMES SALMONELLA TYPHIMURIUM, Strain/Indicator: TA97, Metabolic Activation: S-9, Method: PREINCUBATION)?
Its mutagenic call is “inactive; negative”.

What about the mutagenic call [11] of the same compound?
The mutagenic call was “inactive; negative”.

And the mutagenic call (Test System: AMES SALMONELLA TYPHIMURIUM, Strain/Indicator: TA100, Metabolic Activation: RAT, LIVER, S-9, Method: PREINCUBATION)?
The mutagenic call was “inactive; negative”.

And the mutagenic call [12]?
The mutagenic call was “inactive; negative”.

What about the mutagenic call (Test System: AMES SALMONELLA TYPHIMURIUM, Strain/Indicator: TA102, Metabolic Activation: S-9, Method: PREINCUBATION) of the same compound?
The mutagenic call was “inactive; negative”.

Source: PubChem BioAssay AID1259407 (Chemical Carcinogenesis Research Information System (CCRIS), 2018)
